Source: ChEMBL document CHEMBL5252541, “Repurposing antipsychotic drugs into antifungal agents: Synergistic combinations of azoles and bromperidol derivatives in the treatment of various fungal infections” (Eur J Med Chem, 2017)
Calls of active or inactive are those of the source. No cut-off for these calls is given here.

Tests used:
Candida albicans [1] = assay: Fungicidal activity against Candida albicans ATCC 64124 assessed as reduction in colony forming units at 2 to 8 times MIC incubated after 6 hrs by time kill assay; type: functional, organism-based
Candida albicans [2] = assay: Antifungal activity against Candida albicans ATCC MYA-1237 measured after 48 hrs by broth microdilution analysis; type: functional
Candida albicans [3] = assay: Synergistic antifungal activity against Candida albicans ATCC 64124 assessed as compound MIC measured after 48 hrs in presence of ketoconazole by checkboard based microplate reader analysis; type: functional
Candida albicans [4] = assay: Synergistic antifungal activity against Candida albicans ATCC 64124 assessed as fractional inhibitory concentration index measured for 72 hrs in presence of posaconazole; type: functional
Candida albicans [5] = assay: Additive antifungal activity against Candida albicans MYA-1003 assessed as fractional inhibitory concentration index measured for 72 hrs in presence of voriconazole
Candida albicans [6] = assay: Synergistic antifungal activity against Candida albicans ATCC 90819 assessed as fractional inhibitory concentration index measured for 72 hrs in presence of posaconazole; type: functional
Candida albicans [7] = assay: Synergistic antifungal activity against Candida albicans ATCC 10231 assessed as compound MIC measured after 48 hrs in presence of posaconazole by checkboard based microplate reader analysis; type: functional
[8] = Cytotoxicity against mouse J774.A1 cells assessed as cell survival at 16 microg/ml by XTT assay; type: toxicity, cell-based; settings: at 16 µg/mL, read-out: Activity
J774.A1 [9] = assay: Cytotoxicity against mouse J774.A1 cells assessed as cell survival at 8 microg/ml by XTT assay; type: toxicity, cell-based; settings: j774.a1, dose 8 µg/ml
Candida albicans [10] = assay: Partial synergistic antifungal activity against Candida albicans ATCC MYA-2310 assessed as fractional inhibitory concentration index measured for 72 hrs in presence of voriconazole; type: functional
Candida albicans [11] = assay: Antifungal activity against Candida albicans ATCC 64124 measured after 48 hrs by broth microdilution analysis; type: functional
Nakaseomyces glabratus [12] = assay: Synergistic antifungal activity against Candida glabrata ATCC 2001 assessed as fractional inhibitory concentration index measured for 72 hrs in presence of posaconazole; type: functional
Candida albicans [13] = assay: Antifungal activity against Candida albicans ATCC MYA-2876 measured after 48 hrs by broth microdilution analysis; type: functional
Nakaseomyces glabratus [14] = assay: Additive antifungal activity against Candida glabrata ATCC 2001 assessed as fractional inhibitory concentration index measured for 72 hrs in presence of posaconazole; type: functional
HEK293 [15] = assay: Cytotoxicity against HEK293 cells assessed as cell survival up to 4 microg/ml by XTT assay; type: toxicity, cell-based; settings: human, dose < 4 µg/ml
BEAS-2B = assay: Cytotoxicity against human BEAS-2B cells assessed as cell survival at 64 microg/ml by XTT assay; type: toxicity, cell-based; settings: dose 64 µg/ml
[16] = Cytotoxicity against mouse J774.A1 cells assessed as cell survival by XTT assay; type: toxicity, cell-based; settings: read-out: Activity
[17] = Cytotoxicity against human BEAS-2B cells assessed as cell survival at 8 microg/ml in presence of posaconazole by XTT assay; type: toxicity, cell-based; settings: at 8 µg/mL, read-out: Activity
Candida albicans [18] = assay: Antifungal activity against Candida albicans ATCC MYA-2310 measured after 48 hrs by broth microdilution analysis; type: functional
Candida albicans [19] = assay: Synergistic antifungal activity against Candida albicans ATCC 64124 assessed as compound MIC measured after 48 hrs in presence of posaconazole by checkboard based microplate reader analysis; type: functional
Candida albicans [20] = assay: Synergistic antifungal activity against Candida albicans ATCC 64124 assessed as compound MIC measured after 48 hrs in presence of voriconazole by checkboard based microplate reader analysis; type: functional
Candida albicans [21] = assay: Partial synergistic antifungal activity against Candida albicans ATCC 10231 assessed as fractional inhibitory concentration index measured for 72 hrs in presence of voriconazole; type: functional
Candida albicans [22] = assay: Antifungal activity against Candida albicans ATCC MYA-1003 measured after 48 hrs by broth microdilution analysis; type: functional
[23] = Cytotoxicity against human HEK293 cells assessed as cell survival at 16 microg/ml in presence of posaconazole by XTT assay; type: toxicity, cell-based; settings: at 16 µg/mL
Candida albicans [24] = assay: Synergistic antifungal activity against Candida albicans ATCC 64124 assessed as compound MIC measured after 48 hrs in presence of itraconazole by checkboard based microplate reader analysis; type: functional
Candida albicans [25] = assay: Additive antifungal activity against Candida albicans ATCC MYA-1237 assessed as fractional inhibitory concentration index measured for 72 hrs in presence of posaconazole; type: functional
J774.A1 [26] = assay: Cytotoxicity against mouse J774.A1 cells assessed as cell survival at 16 microg/ml in presence of voriconazole by XTT assay; type: toxicity, cell-based; settings: dose 16 µg/ml
Candida albicans [27] = assay: Partial synergistic antifungal activity against Candida albicans ATCC 64124 assessed as fractional inhibitory concentration index measured for 72 hrs in presence of ketoconazole; type: functional
Candida albicans [28] = assay: Additive antifungal activity against Candida albicans ATCC MYA-1237 assessed as fractional inhibitory concentration index measured for 72 hrs in presence of voriconazole; type: functional
Candida albicans [29] = assay: Antifungal activity against Candida albicans ATCC 90819 measured after 48 hrs by broth microdilution analysis; type: functional
Candida albicans [30] = assay: Synergistic antifungal activity against Candida albicans ATCC 10231 assessed as compound MIC measured after 48 hrs in presence of voriconazole by checkboard based microplate reader analysis; type: functional
Candida albicans [31] = assay: Partial synergistic antifungal activity against Candida albicans ATCC MYA-2310 assessed as fractional inhibitory concentration index measured for 72 hrs in presence of posaconazole; type: functional
Nakaseomyces glabratus [32] = assay: Additive antifungal activity against Candida glabrata ATCC 2001 assessed as fractional inhibitory concentration index measured for 72 hrs in presence of voriconazole; type: functional
Candida albicans [33] = assay: Additive antifungal activity against Candida albicans ATCC 10231 assessed as fractional inhibitory concentration index measured for 72 hrs in presence of fluconazole; type: functional
Candida albicans [34] = assay: Partial synergistic antifungal activity against Candida albicans ATCC 64124 assessed as fractional inhibitory concentration index measured for 72 hrs in presence of itraconazole; type: functional
Candida albicans [35] = assay: Partial synergistic antifungal activity against Candida albicans ATCC MYA-1003 assessed as fractional inhibitory concentration index measured for 72 hrs in presence of posaconazole; type: functional
HEK293 [36] = assay: Cytotoxicity against human HEK293 cells assessed as cell survival at 32 microg/ml in presence of voriconazole by XTT assay
Candida albicans [37] = assay: Additive antifungal activity against Candida albicans ATCC MYA-2876 assessed as fractional inhibitory concentration index measured for 72 hrs in presence of posaconazole; type: functional
Candida albicans [38] = assay: Synergistic antifungal activity against Candida albicans ATCC 10231 assessed as compound MIC measured after 48 hrs in presence of ketoconazole by checkboard based microplate reader analysis; type: functional
[39] = Cytotoxicity against human HEK293 cells assessed as cell survival at 1 to 16 microg/ml in presence of posaconazole by XTT assay; type: toxicity, cell-based; settings: at 1 to 16 µg/mL, dose 1-16 µg/ml
Candida albicans [40] = assay: Partial synergistic antifungal activity against Candida albicans ATCC 10231 assessed as fractional inhibitory concentration index measured for 72 hrs in presence of itraconazole; type: functional
Candida albicans [41] = assay: Fungicidal activity against Candida albicans ATCC 64124 assessed as reduction in colony forming units at 2 to 8 times MIC incubated after 6 hrs in presence of posaconazole by time kill assay; type: functional, organism-based

SMILES: O=C(CCCN1CCC(O)(c2ccc(Br)cc2)CC1)c1ccc(F)cc1 [BROMPERIDOL]
- Activity (Candida albicans [1]): Active
- MIC (Candida albicans [2]): > 128 µg/mL
- MIC (Candida albicans [3]): 64 µg/mL
- fractional inhibitory concentration index (FICI) (Candida albicans [4]): 0.16
- fractional inhibitory concentration index (FICI) (Candida albicans [5]): 0.52
- fractional inhibitory concentration index (FICI) (Candida albicans [6]): 0.5
- MIC (Candida albicans [7]): 64 µg/mL
- viability at 16 microg/ml [8]: 72%
- Activity (J774.A1 [9]): Non-Toxic
- fractional inhibitory concentration index (FICI) (Candida albicans [10]): 0.53
- MIC (Candida albicans [11]): > 128 µg/mL
- fractional inhibitory concentration index (FICI) (Nakaseomyces glabratus [12]): 0.5
- MIC (Candida albicans [13]): > 128 µg/mL
- fractional inhibitory concentration index (FICI) (Nakaseomyces glabratus [14]): 0.51
- Activity (HEK293 [15]): Non-Toxic
- Activity (BEAS-2B): Non-Toxic
- viability [16]: > 100%
- viability at 8 microg/ml [17]: 71%
- MIC (Candida albicans [18]): > 128 µg/mL
- MIC (Candida albicans [19]): 4 µg/mL
- MIC (Candida albicans [20]): 8 µg/mL
- fractional inhibitory concentration index (FICI) (Candida albicans [21]): 0.75
- MIC (Candida albicans [22]): > 128 µg/mL
- viability at 16 microg/ml [23]: 40%
- MIC (Candida albicans [24]): 64 µg/mL
- fractional inhibitory concentration index (FICI) (Candida albicans [25]): 2
- Activity (J774.A1 [26]): Non-Toxic
- fractional inhibitory concentration index (FICI) (Candida albicans [27]): 0.75
- fractional inhibitory concentration index (FICI) (Candida albicans [28]): 2
- MIC (Candida albicans [29]): > 128 µg/mL
- MIC (Candida albicans [30]): 32 µg/mL
- fractional inhibitory concentration index (FICI) (Candida albicans [31]): 0.52
- fractional inhibitory concentration index (FICI) (Nakaseomyces glabratus [32]): 0.51
- fractional inhibitory concentration index (FICI) (Candida albicans [33]): 1.5
- fractional inhibitory concentration index (FICI) (Candida albicans [34]): 0.56
- fractional inhibitory concentration index (FICI) (Candida albicans [35]): 0.75
- Activity (HEK293 [36]): Non-Toxic
- fractional inhibitory concentration index (FICI) (Candida albicans [37]): 2
- MIC (Candida albicans [38]): 32 µg/mL
- viability [39]: 80%
- fractional inhibitory concentration index (FICI) (Candida albicans [40]): 0.75
- Activity (Candida albicans [41]): Active
